Experimental data published in patent US20260109732A1, “LIPID AMINES” (ModernaTX, Inc., priority 2021, published 2026).
Counter-ions that a name gives are not always drawn.

Tests used:
HeLa cells [1] = assay: Luciferase Protein Expression Assay in HeLa Cells; format: cell-based, Human; conditions: LNPs encapsulating Luciferase mRNA, 25 ng per well, N=4 wells; 5 h serum-free then 24 h; ONE-Glo
Outline: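 Luminescence output, average RLU across N=4 wells, was measured with ONE-Glo after cell lysis. Before that, HeLa cells were exposed to 25 ng/well luciferase-mRNA nanoparticles (PBS control) for 5 h serum-free, then cultured overnight (24 h) in complete MEM.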

[2] = Encapsulation of mRNA nanoparticles with lipid amines using Ribogreen assay; format: physicochemical
Outline: (§1)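 DLS gave size and PDI, and Ribogreen gave encapsulation, for luciferase- or CFTR-mRNA nanoparticles (N:P 4.93). Particles came from IL1/DSPC/cholesterol/PEG-DMG-2K mixed at pH 4, mRNA-loaded, neutralized with TRIS pH 8.12, and then treated with lipid amine SA50 in pH 7.5 buffer.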

[3] = Diameter and PDI from DLS measurements of mRNA nanoparticles with lipid amines; format: physicochemical
Outline: as §1

HeLa cells [4] = assay: CFTR Protein Expression Assay in HeLa Cells; format: cell-based, Human; conditions: LNPs encapsulating CFTR mRNA, N=4 wells; 5 h serum-free then 24 h; immunofluorescence vs PBS control
Outline: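 Readout is fold-change in per-cell CFTR immunofluorescence intensity (488 nm, confocal imaging) relative to PBS-treated cells, from 4 replicate wells. LNPs encapsulating CFTR mRNA were applied serum-free for 5 h, followed by 24 h in complete medium before PFA fixation.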

[5] = CFTR mRNA nanoparticle with lipid amine
[6] = Luciferase mRNA nanoparticle modified with lipid amine

Row | SMILES | Average Relative Light Units ± Standard Deviation (HeLa cells [1]) [Relative Light Units] | % Encapsulation (Ribogreen) [2, 5] [%] | % Encapsulation (Ribogreen) [2, 6] [%] | Diameter (nm) [3, 5] [nm] | PDI [3, 5] | Diameter (nm) [3, 6] [nm] | PDI [3, 6] | Average fold-change in CFTR signal intensity per cell compared to buffer control ± standard deviation (HeLa cells [4]) [fold-change]
1 | CC(C)CCC[C@@H](C)[C@H]1CC[C@H]2[C@@H]3CC=C4C[C@@H](OC(=O)N(CCCCCCCC(C)(C)N)CCC(C)(C)N)CC[C@]4(C)[C@H]3CC[C@]12C [SA152, (3S,8S,9S,10R,13R,14S,17R)-10,13-dimethyl-17-((R)-6-methylheptan-2-yl)-2,3,4,7,8,9,10,11,12,13,14,15,16,17-tetradecahydro-1H-cyclopenta[a]phenanthren-3-yl (3-amino-3-methylbutyl)(8-amino-8-methylnonyl)carbamate dihydrochloride] | 41692.8 ± 9336.8 | 98.4 | 98.2 | 71.6 | 0.14 | 78 | 0.15 | 20.6 ± 1.6
2 | CC[C@H](CC[C@@H](C)[C@H]1CC[C@H]2[C@@H]3CC=C4C[C@@H](OC(=O)N(CCCCCCCC(C)(C)N)CCC(C)(C)N)CC[C@]4(C)[C@H]3CC[C@]12C)C(C)C [SA153, (3S,8S,9S,10R,13R,14S,17R)-17-((2R,5R)-5-ethyl-6-methylheptan-2-yl)-10,13-dimethyl-2,3,4,7,8,9,10,11,12,13,14,15,16,17-tetradecahydro-1H-cyclopenta[a]phenanthren-3-yl (3-amino-3-methylbutyl)(8-amino-8-methylnonyl)carbamate dihydrochloride] | 35859.3 ± 5894.9 | 98.5 | 95.8 | 69.3 | 0.12 | 72 | 0.15 | 17.5 ± 1.4
3 | CC[C@H](CC[C@@H](C)[C@H]1CC[C@H]2[C@@H]3CC=C4C[C@@H](OC(=O)CCCC(=O)N(CCCCCCCC(C)N)CCC(C)N)CC[C@]4(C)[C@H]3CC[C@]12C)C(C)C (stereo partly drawn) [SA154, (3S,8S,9S,10R,13R,14S,17R)-17-((2R,5R)-5-ethyl-6-methylheptan-2-yl)-10,13-dimethyl-2,3,4,7,8,9,10,11,12,13,14,15,16,17-tetradecahydro-1H-cyclopenta[a]phenanthren-3-yl 5-((3-aminobutyl)(8-aminononyl)amino)-5-oxopentanoate dihydrochloride] | 28128.6 ± 4655.3 | 99.1 | 99.6 | 72.8 | 0.13 | 73 | 0.18 | 16.7 ± 0.8
4 | CC[C@H](CC[C@@H](C)[C@H]1CC[C@H]2[C@@H]3CC=C4C[C@@H](OC(=O)CCCC(=O)N(CCCCCCCC(C)(C)N)CCC(C)(C)N)CC[C@]4(C)[C@H]3CC[C@]12C)C(C)C [SA155, (3S,8S,9S,10R,13R,14S,17R)-17-((2R,5R)-5-ethyl-6-methylheptan-2-yl)-10,13-dimethyl-2,3,4,7,8,9,10,11,12,13,14,15,16,17-tetradecahydro-1H-cyclopenta[a]phenanthren-3-yl 5-((3-amino-3-methylbutyl)(8-amino-8-methylnonyl)amino)-5-oxopentanoate dihydrochloride] | 31922.9 ± 8053.8 | 99.4 | 98.9 | 71.1 | 0.13 | 73 | 0.11 | 12.2 ± 1.0
5 | CC[C@H](CC[C@@H](C)[C@H]1CC[C@H]2[C@@H]3CC=C4C[C@@H](OC(=O)CCCC(=O)N(CCC(C)N)CCC(C)N)CC[C@]4(C)[C@H]3CC[C@]12C)C(C)C (stereo partly drawn) [SA156, (3S,8S,9S,10R,13R,14S,17R)-17-((2R,5R)-5-ethyl-6-methylheptan-2-yl)-10,13-dimethyl-2,3,4,7,8,9,10,11,12,13,14,15,16,17-tetradecahydro-1H-cyclopenta[a]phenanthren-3-yl 5-(bis(3-aminobutyl)amino)-5-oxopentanoate dihydrochloride] | 37662.9 ± 8258.6 | 99.6 | 99.5 | 76.5 | 0.18 | 74 | 0.15 | 14.6 ± 0.8
